Laboratory results: patent publication US11498899B2, “Nitrone herbicides” (FMC Corporation, priority 2016, dated 2022)

What was measured:
[1] = tested on: barnyardgrass (Echinochloa crus-galli); assay: Test B flooded paddy test, visual rating 0-100; details: Flood, 250 g ai/ha, applied to paddy water, rated after 13 to 15 days
[2] = tested on: ryegrass, Italian (Italian ryegrass, Lolium multiflorum); assay: Test A preemergence, visual injury rating 0-100; format: in vivo
kochia (Kochia scoparia) [3] = assay: Test A preemergence, visual injury rating 0-100; format: in vivo
[4] = tested on: foxtail, giant (giant foxtail, Setaria faberii); assay: Test A preemergence, visual injury rating 0-100; format: in vivo
[5] = tested on: ragweed (common ragweed, Ambrosia elatior); assay: Test A preemergence, visual injury rating 0-100; format: in vivo
[6] = tested on: pigweed (Amaranthus retroflexus); assay: Test A preemergence, visual injury rating 0-100; format: in vivo
[7] = tested on: barnyardgrass (Echinochloa crus-galli); assay: Test A preemergence, visual injury rating 0-100 (0 no effect, 100 complete control); format: in vivo
[8] = tested on: ryegrass, Italian (Italian ryegrass, Lolium multiflorum); assay: Test A postemergence, visual injury rating 0-100; format: in vivo; details: 0 to 100 scale
kochia (Kochia scoparia) [9] = assay: Test A postemergence, visual injury rating 0-100; format: in vivo; details: 0 to 100 scale
corn (Zea mays) = assay: Test A postemergence, visual injury rating 0-100; format: in vivo; details: 0 to 100 scale
[10] = tested on: foxtail, giant (giant foxtail, Setaria faberii); assay: Test A postemergence, visual injury rating 0-100; format: in vivo; details: 0 to 100 scale
[11] = tested on: barnyardgrass (Echinochloa crus-galli); assay: Test A postemergence, visual injury rating 0-100; format: in vivo; details: 0 to 100 scale
[12] = tested on: wheat (Triticum aestivum); assay: Test A postemergence, visual injury rating 0-100; format: in vivo; details: 0 to 100 scale
[13] = tested on: galium (catchweed bedstraw, Galium aparine); assay: Test A postemergence, visual injury rating 0-100; format: in vivo; details: 0 to 100 scale
[14] = tested on: blackgrass (Alopecurus myosuroides); assay: Test A postemergence, visual injury rating 0-100; format: in vivo; details: 0 to 100 scale
[15] = tested on: ragweed (common ragweed, Ambrosia elatior); assay: Test A postemergence, visual injury rating 0-100; format: in vivo; details: 0 to 100 scale
[16] = tested on: pigweed (Amaranthus retroflexus); assay: Test A postemergence, visual injury rating 0-100; format: in vivo; details: 0 to 100 scale
[17] = tested on: ducksalad (Heteranthera limosa); assay: Test B flooded paddy test, visual rating 0-100; details: Flood, 250 g ai/ha, applied to paddy water, rated after 13 to 15 days
rice (Oryza sativa) = assay: Test B flooded paddy test, visual rating 0-100 (0 no effect, 100 complete control); details: Flood, 250 g ai/ha, applied to paddy water, rated after 13 to 15 days
[18] = 31 g ai/ha, 0 to 100 scale (0 no effect, 100 complete control), approx. 10 days

SMILES	Barnyardgrass plant response rating (0 to 100 scale) [1]	Ryegrass, Italian plant response rating (0 to 100 scale) ([2]; 125 g ai/ha)	Kochia plant response rating (0 to 100 scale) (kochia (Kochia scoparia) [3]; 125 g ai/ha)	Foxtail, Giant plant response rating (0 to 100 scale) ([4]; 125 g ai/ha)	Ragweed plant response rating (0 to 100 scale) ([5]; 125 g ai/ha)	Pigweed plant response rating (0 to 100 scale) ([6]; 125 g ai/ha)	Barnyardgrass plant response rating (0 to 100 scale) ([7]; 125 g ai/ha)	Ryegrass, Italian plant response rating ([8]; 125 g ai/ha)	Ryegrass, Italian plant response rating ([8]; 500 g ai/ha)	Kochia plant response rating (kochia (Kochia scoparia) [9]; 125 g ai/ha)	Corn plant response rating (corn (Zea mays); 125 g ai/ha)	Foxtail, Giant plant response rating ([10]; 125 g ai/ha)	Barnyardgrass plant response rating ([11]; 125 g ai/ha)	Wheat plant response rating ([12]; 125 g ai/ha)	Galium plant response rating ([13]; 125 g ai/ha)	Blackgrass plant response rating ([14]; 125 g ai/ha)	Ragweed plant response rating ([15]; 125 g ai/ha)	Pigweed plant response rating ([16]; 125 g ai/ha)	Ducksalad plant response rating (0 to 100 scale) [17]	Rice plant response rating (0 to 100 scale) (rice (Oryza sativa))	also measured
COc1cc(OC)cc(C2CC(C)=[N+]([O-])C2C(=O)Nc2cccc(F)c2F)c1 (stereo not shown) [Compound 96]	0	0	0	90	0	0	90	0	60	0	10	40	60	0	0	40	0	0	0	0	Ryegrass, Italian plant response rating (0 to 100 scale) ([2]; 500 g ai/ha): 0; Kochia plant response rating (0 to 100 scale) (kochia (Kochia scoparia) [3]; 500 g ai/ha): 40; Foxtail, Giant plant response rating (0 to 100 scale) ([4]; 500 g ai/ha): 90; Ragweed plant response rating (0 to 100 scale) ([5]; 500 g ai/ha): 0; Pigweed plant response rating (0 to 100 scale) ([6]; 500 g ai/ha): 10; Barnyardgrass plant response rating (0 to 100 scale) ([7]; 500 g ai/ha): 100; Kochia plant response rating (kochia (Kochia scoparia) [9]; 500 g ai/ha): 0; Corn plant response rating (corn (Zea mays); 500 g ai/ha): 70; Foxtail, Giant plant response rating ([10]; 500 g ai/ha): 90; Barnyardgrass plant response rating ([11]; 500 g ai/ha): 90; Wheat plant response rating ([12]; 500 g ai/ha): 10; Galium plant response rating ([13]; 500 g ai/ha): 20; Blackgrass plant response rating ([14]; 500 g ai/ha): 90; Ragweed plant response rating ([15]; 500 g ai/ha): 30; Pigweed plant response rating ([16]; 500 g ai/ha): 0
CC1=[N+]([O-])C(C)(C(=O)Nc2cccc(F)c2F)C(c2ccc(C(F)(F)F)cc2)C1 (racemic) [Compound 1]	70	0	70	100	0	20	90	0	20	0	0	0	70	30	80	20	0	20	70	50	Ryegrass, Italian plant response rating ([2]; 500 g ai/ha, 0 to 100 scale): 60; Kochia plant response rating (kochia (Kochia scoparia) [3]; 500 g ai/ha, 0 to 100 scale): 90; Foxtail, Giant plant response rating ([4]; 500 g ai/ha, 0 to 100 scale): 100; Ragweed plant response rating ([5]; 500 g ai/ha, 0 to 100 scale): 30; Pigweed plant response rating ([6]; 500 g ai/ha, 0 to 100 scale): 80; Barnyardgrass plant response rating ([7]; 500 g ai/ha, 0 to 100 scale): 100; Kochia plant response rating (kochia (Kochia scoparia) [9]; 500 g ai/ha): 70; Corn plant response rating (corn (Zea mays); 500 g ai/ha): 70; Foxtail, Giant plant response rating ([10]; 500 g ai/ha): 80; Barnyardgrass plant response rating ([11]; 500 g ai/ha): 90; Wheat plant response rating ([12]; 500 g ai/ha): 70; Galium plant response rating ([13]; 500 g ai/ha): 80; Blackgrass plant response rating ([14]; 500 g ai/ha): 70; Ragweed plant response rating ([15]; 500 g ai/ha): 30; Pigweed plant response rating ([16]; 500 g ai/ha): 60
CC1=[N+]([O-])C(C(=O)Nc2cccc(F)c2F)C(c2cc(F)c(F)c(Oc3ncc(F)cn3)c2)C1 (racemic) [Compound 85]	0	60	0	80	0	50	80	0	60	0	60	60	40	50	20	60	0	0	0	0	Ryegrass, Italian plant response rating (0 to 100 scale) ([2]; 500 g ai/ha): 90; Kochia plant response rating (0 to 100 scale) (kochia (Kochia scoparia) [3]; 500 g ai/ha): 10; Foxtail, Giant plant response rating (0 to 100 scale) ([4]; 500 g ai/ha): 100; Ragweed plant response rating (0 to 100 scale) ([5]; 500 g ai/ha): 0; Pigweed plant response rating (0 to 100 scale) ([6]; 500 g ai/ha): 0; Barnyardgrass plant response rating (0 to 100 scale) ([7]; 500 g ai/ha): 100; Kochia plant response rating (kochia (Kochia scoparia) [9]; 500 g ai/ha): 0; Corn plant response rating (corn (Zea mays); 500 g ai/ha): 90; Foxtail, Giant plant response rating ([10]; 500 g ai/ha): 80; Barnyardgrass plant response rating ([11]; 500 g ai/ha): 80; Wheat plant response rating ([12]; 500 g ai/ha): 90; Galium plant response rating ([13]; 500 g ai/ha): 30; Blackgrass plant response rating ([14]; 500 g ai/ha): 80; Ragweed plant response rating ([15]; 500 g ai/ha): 0; Pigweed plant response rating ([16]; 500 g ai/ha): 0
CC1=[N+]([O-])[C@@H](C(=O)Nc2cccc(F)c2F)[C@H](c2cccc(Oc3ncc(F)cc3F)c2)C1 [Compound 70]	0	0	0	90	0	0	80	0		0	0	0	70	0	30	30	0	20	0	0	Ryegrass, Italian plant response rating [2, 18]: 0; Kochia plant response rating (kochia (Kochia scoparia) [3]; [18]): 0; Foxtail, Giant plant response rating [4, 18]: 20; Ragweed plant response rating [5, 18]: 0; Pigweed plant response rating [6, 18]: 0; Barnyardgrass plant response rating [7, 18]: 40; Ryegrass, Italian plant response rating ([8]; 31 g ai/ha): 0; Kochia plant response rating (kochia (Kochia scoparia) [9]; 31 g ai/ha): 0; Corn plant response rating (corn (Zea mays); 31 g ai/ha): 0; Foxtail, Giant plant response rating ([10]; 31 g ai/ha): 0; Barnyardgrass plant response rating ([11]; 31 g ai/ha): 20; Wheat plant response rating ([12]; 31 g ai/ha): 0; Galium plant response rating ([13]; 31 g ai/ha): 0; Blackgrass plant response rating ([14]; 31 g ai/ha): 0; Ragweed plant response rating ([15]; 31 g ai/ha): 0; Pigweed plant response rating ([16]; 31 g ai/ha): 0
CC1=[N+]([O-])C(C(=O)Nc2cccc(F)c2F)C(c2ccc(C(F)(F)F)c(C)c2)C1 (racemic) [Compound 87]	50	90	10	90	0	100	90	70	90	10	70	60	80	70	0	70	10	0	85	0	Ryegrass, Italian plant response rating (0 to 100 scale) ([2]; 500 g ai/ha): 90; Kochia plant response rating (0 to 100 scale) (kochia (Kochia scoparia) [3]; 500 g ai/ha): 80; Foxtail, Giant plant response rating (0 to 100 scale) ([4]; 500 g ai/ha): 90; Ragweed plant response rating (0 to 100 scale) ([5]; 500 g ai/ha): 70; Pigweed plant response rating (0 to 100 scale) ([6]; 500 g ai/ha): 100; Barnyardgrass plant response rating (0 to 100 scale) ([7]; 500 g ai/ha): 90; Kochia plant response rating (kochia (Kochia scoparia) [9]; 500 g ai/ha): 70; Corn plant response rating (corn (Zea mays); 500 g ai/ha): 80; Foxtail, Giant plant response rating ([10]; 500 g ai/ha): 90; Barnyardgrass plant response rating ([11]; 500 g ai/ha): 90; Wheat plant response rating ([12]; 500 g ai/ha): 80; Galium plant response rating ([13]; 500 g ai/ha): 70; Blackgrass plant response rating ([14]; 500 g ai/ha): 90; Ragweed plant response rating ([15]; 500 g ai/ha): 30; Pigweed plant response rating ([16]; 500 g ai/ha): 50
